Experimental data taken from ChEMBL document CHEMBL5325419, “Design, synthesis and biological evaluation of novel thiosemicarbazones as cruzipain inhibitors” (Eur J Med Chem, 2023).
Values joined by “and” are separate entries in the source; they are usually repeats but may differ in a detail not shown here. Equal entries are not always repeated. Active and inactive are the calls of the source. No cut-off for these calls is given here.

What was measured:
Cruzipain [1] = target: T1, Cruzipain (Trypanosoma cruzi, UniProt P25779); assay: Inhibition of recombinant Trypanosoma cruzi Cruzipain using Z-Phe-Arg-AMC as substrate preincubated for 5 mins followed by substrate addition by spectrofluorometry analysis
T1 sequence (P25779 whole entry): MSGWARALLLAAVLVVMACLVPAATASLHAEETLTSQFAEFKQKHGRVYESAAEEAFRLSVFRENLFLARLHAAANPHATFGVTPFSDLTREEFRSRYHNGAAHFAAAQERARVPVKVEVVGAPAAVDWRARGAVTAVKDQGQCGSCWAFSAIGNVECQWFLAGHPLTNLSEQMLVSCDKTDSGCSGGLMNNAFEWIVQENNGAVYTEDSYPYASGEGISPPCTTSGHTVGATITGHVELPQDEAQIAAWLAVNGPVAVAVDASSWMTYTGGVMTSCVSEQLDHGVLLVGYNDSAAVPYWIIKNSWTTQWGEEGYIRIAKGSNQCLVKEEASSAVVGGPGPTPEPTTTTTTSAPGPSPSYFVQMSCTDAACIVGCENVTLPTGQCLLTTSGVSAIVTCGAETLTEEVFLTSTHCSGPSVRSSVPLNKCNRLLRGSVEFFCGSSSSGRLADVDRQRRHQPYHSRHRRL

Cruzipain [2] = target: T1, Cruzipain; assay: Inhibition of recombinant Trypanosoma cruzi Cruzipain using Z-FR-AMC as substrate preincubated for 20 mins followed by substrate addition and measured for 45 mins by fluorescence analysis
[3] = target: Cruzipain (Trypanosoma cruzi) (UniProt P25779); assay: Reversible inhibition of recombinant Trypanosoma cruzi Cruzipain using Z-LR-AMC as substrate at 1 uM preincubated for 60 mins followed by substrate addition and measured for 45 to 60 mins by fluorescence analysis; settings: time 105-120 min
Cruzipain (Trypanosoma cruzi), sequence (P25779 123-467 limits assumed): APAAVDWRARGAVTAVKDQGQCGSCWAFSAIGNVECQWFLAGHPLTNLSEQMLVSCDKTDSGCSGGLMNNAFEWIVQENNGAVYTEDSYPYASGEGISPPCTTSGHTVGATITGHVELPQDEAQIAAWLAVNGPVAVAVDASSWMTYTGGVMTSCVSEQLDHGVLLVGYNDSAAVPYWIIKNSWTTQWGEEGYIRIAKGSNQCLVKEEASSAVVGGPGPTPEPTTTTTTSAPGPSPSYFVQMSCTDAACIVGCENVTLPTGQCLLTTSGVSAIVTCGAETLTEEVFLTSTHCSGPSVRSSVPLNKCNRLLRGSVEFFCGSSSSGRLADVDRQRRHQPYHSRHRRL

[4] = target: Cruzipain (Trypanosoma cruzi) (UniProt P25779); assay: Time dependent inhibition of recombinant Trypanosoma cruzi Cruzipain using Z-FR-AMC as substrate at 125 nM preincubated for 60 mins followed by substrate addition and measured for 45 to 60 mins by fluorescence analysis; settings: time 105-120 min, TDE = time-dependent effect
[5] = target: Cruzipain (Trypanosoma cruzi) (UniProt P25779); assay: Time dependent inhibition of recombinant Trypanosoma cruzi Cruzipain using Z-FR-AMC as substrate at 1000 nM preincubated for 60 mins followed by substrate addition and measured for 45 to 60 mins by fluorescence analysis; settings: time 105-120 min, TDE = time-dependent effect
[6] = target: Cruzipain (Trypanosoma cruzi) (UniProt P25779); assay: Inhibition of recombinant Trypanosoma cruzi Cruzipain using Z-FR-AMC as substrate at 125 to 1000 nM by fluorescence analysis; settings: dose 125-1000 nM
[7] = target: Cruzipain (Trypanosoma cruzi) (UniProt P25779); assay: Reversible inhibition of recombinant Trypanosoma cruzi Cruzipain using Z-LR-AMC as substrate at 25 uM preincubated for 60 mins followed by substrate addition and measured for 45 to 60 mins by fluorescence analysis; settings: time 105-120 min
[8] = target: Cruzipain (Trypanosoma cruzi) (UniProt P25779); assay: Reversible inhibition of recombinant Trypanosoma cruzi Cruzipain using Z-LR-AMC as substrate at 10 uM preincubated for 60 mins followed by substrate addition and measured for 45 to 60 mins by fluorescence analysis; settings: time 105-120 min

SMILES | IC50 (Cruzipain [1]) | IC50 (Cruzipain [2]; read-out: IC50) | inhibition [4] | inhibition [5] | inhibition [6] | also measured
CC/C(=N\N=C(\N)S)c1ccc(Cl)c(Cl)c1 | 24.5 nM |  |  |  |  | 
N/C(S)=N/N=C/c1cccc(Br)c1 |  |  |  |  |  | IC50 (Cruzipain [2]; read-out: pIC50 (converted)): 1360 nM
NC(=S)N/N=C(\CCN1CCOCC1)c1ccc(Cl)c(Cl)c1 |  | 3.34 nM and 8.48 nM | Tde | Tde | Dose-Dependent Effect | inhibition [3]: Active
NC(=S)N/N=C(\CCn1ccnc1)c1ccc(Cl)c(Cl)c1 |  |  | Tde | Tde | Dose-Dependent Effect | inhibition [7]: Active
NC(=S)N/N=C(\CCN1CCCCC1)c1ccc(Cl)c(Cl)c1 |  | 2.86 nM and 8.54 nM | Tde | Tde | Dose-Dependent Effect | inhibition [8]: Active
C/C(=N\N=C(\N)S)c1cccc(Br)c1 | 110 nM |  |  |  |  | 
